Reference: patent publication US8796463B2 (priority 2009, dated 2014)
Several values for one entry are separate records, joined by “and”; a condition that tells them apart may be missing. Identical values can stand only once.

Tests used:
Pythium ultimum = experiment: Pythium test (cotton) / seed treatment; type: in vivo; details: 10 g/dt seed of active ingredient, emerged seedlings after 7 days
Experimental: Pythium Test (Cotton)/Seed Treatment
The test is performed under greenhouse conditions.
Cotton seeds, treated with the active compound or compound combinations, solved in N-methyl-2-pyrrolidon and diluted with water to the desired dosages, were sown in 6*6 cm pots containing 4 cm of a 1:1 mix of steamed field soil and sand.
Perlite was incubated with mycelium fragments of Pythium ultimum. 1 ml of infected perlite was scattered between the treated cotton seeds. Seeds were then covered by light expanded clay aggregate. Pots were incubated in the greenhouse 7 days at 20° C. and 80% relative humidity.
Assessment consisted of counting of emerged seedlings. 0% means an efficacy which corresponds to that of the control, while an efficacy of 100% means that all seedlings have emerged.

Phytophthora infestans = type: in vivo; details: tomato, preventive spray, 100 ppm of active ingredient, evaluated 7 days after inoculation
Plasmopara viticola = experiment: Plasmopara test (grapevines) / preventive; type: in vivo; details: preventive spray, 10 ppm of active ingredient, evaluated 6 days after inoculation
Experimental: Plasmopara Test (Grapevines)/Preventive
To produce a suitable preparation of active compound, 1 part by weight of active compound is mixed with the stated amounts of solvent and emulsifier, and the concentrate is diluted with water to the desired concentration.
To test for preventive activity, young plants are sprayed with the preparation of active compound at the stated rate of application. After the spray coating has dried on, the plants are inoculated with an aqueous spore suspension of Plasmopara viticola and then remain for 1 day in an incubation cabinet at approximately 20° C. and a relative atmospheric humidity of 100%. The plant is subsequently placed for 4 days in a greenhouse at approximately 21° C. and a relative atmospheric humidity of approximately 90%. The plants are then misted and placed for 1 day in an incubation cabinet.
The test is evaluated 6 days after the inoculation. 0% means an efficacy which corresponds to that of the untreated control, while an efficacy of 100% means that no disease is observed.

[1] = log P by HPLC on reversed phase columns (EEC directive 79/831 Annex V.A8); type: physicochemical; details: for chromatographic logP: reversed phase HPLC column, pH 2.7, formic acid eluent, reported in preparation example, read-out: log P(HCOOH)
Experimental: Measurement of log P values was performed according EEC directive 79/831 Annex V.A8 by HPLC (High Performance Liquid Chromatography) on reversed phase columns with the following method:
measurement of LC-MS was done at pH 2.7 with 0.1% formic acid in water and with acetonitrile (contains 0.1% formic acid) as eluent with a linear gradient from 10% acetonitrle to 95% acetonitrile.
Calibration was done with not branched alkan2-ones (with 3 to 16 carbon atoms) with known log P-values (measurement of log P values using retention times with linear interpolation between successive alkanones). lambda-maX-values were determined using UV-spectra from 200 nm to 400 nm and the peak values of the chromatographic signals.

Structure (SMILES): Cn1nnnc1C(=NOCc1csc(NC(=O)C2CCc3ccccc3O2)n1)c1ccccc1 (stereo not drawn) [Example 10, N-{4-[({[(1-methyl-1H-tetrazol-5-yl)(phenyl)methylene]amino}oxy)methyl]-1,3-thiazol-2-yl}chromane-2-carboxamide]
- Efficacy % (Pythium ultimum): 86%
- Efficacy % (Phytophthora infestans): 100%
- Efficacy % (Plasmopara viticola): 100%
- chromatographic logP [1]: 3.78

Structure (SMILES): Cn1nnnc1C(=NOCc1cccc(NC(=O)C2Cc3ccccc3O2)n1)c1ccccc1 (stereo not drawn) [Example 41, N-{6-[({[(1-methyl-1H-tetrazol-5-yl)(phenyl)methylene]amino}oxy)methyl]pyridin-2-yl}-2,3-dihydro-1-benzofuran-2-carboxamide]
- Efficacy % (Pythium ultimum): 92%
- Efficacy % (Phytophthora infestans): 89%
- Efficacy % (Plasmopara viticola): 97% and 91%
- chromatographic logP [1]: 3.67

Structure (SMILES): Cn1nnnc1C(=NOCc1csc(NC(=O)C2COc3ccccc3O2)n1)c1ccccc1 (stereo not drawn) [Example 11]
- Efficacy % (Pythium ultimum): 77%
- Efficacy % (Phytophthora infestans): 95%
- Efficacy % (Plasmopara viticola): 98%
- logp ([1]; pH 2.7, 0.1% formic acid in water / acetonitrile gradient): 3.46
